This assay deals with 168753-222-R-J1-PDC complex spheroid viability. The experiment in a line: Anticancer human tumor 168753-222-R-J1-PDC patient-derived bladder carcinoma cell line growth inhibition [CLK]. To be noted: for viability, T/C: stronger effect = lower value. The procedure, abridged:
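Patient-derived tumor cells grown as complex spheroids with HUVEC endothelial cells and mesenchymal stem cells, treated with drug combinations. Concentrations descend in half-log steps from near clinical Cmax, or from 10 microM if Cmax unknown.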

[1] abbreviates: curve of first compound, second compound 0.0316 µM.
[2] abbreviates: curve of first compound, second compound 0.1 µM.
[3] abbreviates: curve of first compound, second compound 0.316 µM.
Setting [4] is: curve of first compound, second compound 1 µM.
The mark [5] stands for this setting: curve of first compound, second compound 3.16 µM.
[6] abbreviates: curve of first compound, second compound 10 µM.
Setting [7] is: second compound 0.0316 µM, first compound 0.00316 µM.
The mark [8] stands for this setting: second compound 0.0316 µM, first compound 0.01 µM.
[9] abbreviates: second compound 0.0316 µM, first compound 0.0316 µM.
Setting [10] is: second compound 0.0316 µM, first compound 0.1 µM.
Where [11] appears, read: second compound 0.1 µM, first compound 0.00316 µM.
The mark [12] stands for this setting: second compound 0.1 µM, first compound 0.01 µM.
The mark [13] stands for this setting: second compound 0.1 µM, first compound 0.0316 µM.
The mark [14] stands for this setting: second compound 0.1 µM, first compound 0.1 µM.
Where [15] appears, read: second compound 0.316 µM, first compound 0.00316 µM.
Setting [16] is: second compound 0.316 µM, first compound 0.01 µM.
Setting [17] is: second compound 0.316 µM, first compound 0.0316 µM.
[18] abbreviates: second compound 0.316 µM, first compound 0.1 µM.
The mark [19] stands for this setting: second compound 1 µM, first compound 0.00316 µM.
Setting [20] is: second compound 1 µM, first compound 0.01 µM.
[21] abbreviates: second compound 1 µM, first compound 0.0316 µM.
Where [22] appears, read: second compound 1 µM, first compound 0.1 µM.
Where [23] appears, read: second compound 3.16 µM, first compound 0.00316 µM.
The mark [24] stands for this setting: second compound 3.16 µM, first compound 0.01 µM.
Where [25] appears, read: second compound 3.16 µM, first compound 0.0316 µM.
Setting [26] is: second compound 3.16 µM, first compound 0.1 µM.
Where [27] appears, read: second compound 10 µM, first compound 0.00316 µM.
Setting [28] is: second compound 10 µM, first compound 0.01 µM.
Where [29] appears, read: second compound 10 µM, first compound 0.0316 µM.
Setting [30] is: second compound 10 µM, first compound 0.1 µM.

In PubChem BioAssay AID2060626 (Molecular Pharmacology Branch, DTP, NCI, 2025) one finds IC50 and viability, T/C data, which are given here for 5 compounds.

pIC50: −log10 of the molar value. Where “and” joins values, the source holds several entries; their conditions need not be identical. Identical values can stand only once.
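Further: viability measured after seven days of drug exposure.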
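Wherever viability, T/C is given: luminescence signal used as surrogate for viable cell amount; 100% = DMSO vehicle control wells.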

For `COc1c(OCCCN2CCOCC2)ccc2c3n(c(=NC(=O)c4cnc(N)nc4)nc12)CCN3` + CNC(=O)c1ccc(Nc2nc(OC3CCCC3)c3c(-c4ccc5nc(C)oc5c4)c[nH]c3n2)c(OC)c1, the pIC50 (as a rule, −log10 of the IC50, conventionally taken in molar units) runs as follows: under setting [1], 7.92; under setting [2], 7.88; under setting [3], 8.29; under setting [4], more than 8.50; under setting [5], more than 8.50; under setting [6], more than 8.50. The viability, T/C (as a rule, the result in the treated group divided by that in the control group, in per cent) is 96.5% under setting [7]; 56.4% under setting [8]; 17.8% under setting [9]; 13.7% under setting [10]; 8.52% (second compound 0.0316 µM, first compound 0.316 µM); 1.96% (second compound 0.0316 µM, first compound 1 µM). Also, the viability, T/C runs as follows: under setting [11], 87.3%; under setting [12], 60.8%; under setting [13], 14.7%; under setting [14], 11.1%; (second compound 0.1 µM, first compound 0.316 µM) 7.84%; (second compound 0.1 µM, first compound 1 µM) 1.03%. Moreover, the viability, T/C was 67.3% under setting [15]; 25.6% under setting [16]; 12.7% under setting [17]; 7.32% under setting [18]; 4.55% (second compound 0.316 µM, first compound 0.316 µM); 0.36% (second compound 0.316 µM, first compound 1 µM). Besides, the viability, T/C was 25% under setting [19]; 16.4% under setting [20]; 3.59% under setting [21]; 0.43% under setting [22]; 0.26% (second compound 1 µM, first compound 0.316 µM); 1.09% (second compound 1 µM, first compound 1 µM). The viability, T/C is 14.6% under setting [23]; 12.3% under setting [24]; 2.46% under setting [25]; 0.34% under setting [26]; 2.13% (second compound 3.16 µM, first compound 0.316 µM); 1.79% (second compound 3.16 µM, first compound 1 µM). The viability, T/C by setting is: under setting [27], 12.6%; under setting [28], 10.4%; under setting [29], 3.75%; under setting [30], 2.46%; (second compound 10 µM, first compound 0.316 µM) 0.34%; (second compound 10 µM, first compound 1 µM) 3.45%.
Turning to `CNC(=O)c1ccc(Nc2nc(OC3CCCC3)c3c(-c4ccc5nc(C)oc5c4)c[nH]c3n2)c(OC)c1`, the viability, T/C is, setting by setting: (compound 0.0316 µM) 101% [middle of 12 runs]; (compound 0.1 µM) 99.3% [middle of 12 runs]; (compound 1 µM) 45.1% [middle of 12 runs]; (compound 3.16 µM) 33.5% [middle of 12 runs]; (compound 10 µM) 23.6% [middle of 12 runs]. Besides, where the note is “compound alone, run of 08/01/2023”, the IC50 (as a rule, the point on the concentration scale where inhibition reaches its midpoint) was 900 nM [middle of 12 runs].
In the case of `Cn1ncnc1[C@H]1c2n[nH]c(=O)c3cc(F)cc(c23)N[C@@H]1c1ccc(F)cc1` + CN1CCN(c2cc(C(=O)Nc3cc4cc(-c5cnn(C)c5)ccc4cn3)ccn2)CC1, the pIC50 runs as follows: under setting [1], less than 7.00; under setting [2], 8.39; under setting [3], more than 9.50; under setting [4], more than 9.50; under setting [5], more than 9.50; under setting [6], more than 9.50. The viability, T/C by setting is: (second compound 0.0316 µM, first compound 0.000316 µM) 90.2%; (second compound 0.0316 µM, first compound 0.001 µM) 95.1%; under setting [7], 70.5%; under setting [8], 101%; under setting [9], 97.9%; under setting [10], 58.2%. Besides, the viability, T/C by setting is: (second compound 0.1 µM, first compound 0.000316 µM) 58.7%; (second compound 0.1 µM, first compound 0.001 µM) 72.5%; under setting [11], 54.7%; under setting [12], 18.7%; under setting [13], 25.8%; under setting [14], 56%. Besides, the viability, T/C is 9.67% (second compound 0.316 µM, first compound 0.000316 µM); 9.41% (second compound 0.316 µM, first compound 0.001 µM); 8.77% under setting [15]; 7.96% under setting [16]; 8.57% under setting [17]; 8.4% under setting [18]. For the same compound, the viability, T/C (second compound 1 µM, first compound 0.000316 µM) was 0.18%; the viability, T/C (second compound 1 µM, first compound 0.001 µM) is 0.28%; the viability, T/C under setting [19] is 0.18%; the viability, T/C under setting [20] is 0.53%; the viability, T/C under setting [21] is 0.24%; the viability, T/C under setting [22] was 0.51%. Besides, the viability, T/C was 1.24% (second compound 3.16 µM, first compound 0.000316 µM); 0.1% (second compound 3.16 µM, first compound 0.001 µM); 0.18% under setting [23]; 0.06% under setting [24]; 0.26% under setting [25]; 0.88% under setting [26]. Also, the viability, T/C by setting is: (second compound 10 µM, first compound 0.000316 µM) 0.11%; (second compound 10 µM, first compound 0.001 µM) 0.27%; under setting [27], 0.25%; under setting [28], 0.1%; under setting [29], 0.21%; under setting [30], 0.19%.
As for `CC1(C)CCC(CN2CCN(c3ccc(C(=O)NS(=O)(=O)c4ccc(NCC5CCOCC5)c([N+](=O)[O-])c4)c(Oc4cnc5[nH]ccc5c4)c3)CC2)=C(c2ccc(Cl)cc2)C1`, the viability, T/C runs as follows: (compound 0.0316 µM) 87% and 96.7%; (compound 0.1 µM) 97% and 94.3%; (compound 0.316 µM) 74% and 113%; (compound 1 µM) 112% and 102%; (compound 3.16 µM) 54.4% and 93.3%; (compound 10 µM) 10.7% and 22%. For the same compound, the pIC50 (curve of compound) was 5.45 and 5.20.
As to `C=C(F)C(=O)N1CCN(c2nc(OCC3CCCN3C)nc3c2CCN(c2cccc4cccc(Cl)c24)C3)CC1CC#N` (centres undefined), the viability, T/C runs as follows: (compound 0.0316 µM) 99.3% and 97.7%; (compound 0.1 µM) 93.6% and 102%; (compound 0.316 µM) 91.3% and 87.2%; (compound 1 µM) 95.6% and 87.8%; (compound 3.16 µM) 93.2% and 67.9%; (compound 10 µM) 70.9% and 16.5%. Moreover, the pIC50 (curve of compound) is < 5.00 and 5.33.
